Results: PubChem BioAssay (NCI)
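Method: 48-hour compound exposure of cells in 96-well plates, five concentrations, linear interpolation of endpoints. GI50: concentration for 50% inhibition of growth. TGI: concentration producing complete growth inhibition.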

Key:
Assay in all cases: DTP human tumour cell line panel, 48 h
KM12 colon = test system: KM12 colon
K-562 leukemia = test system: K-562 leukemia
OVCAR-4 ovarian = test system: OVCAR-4 ovarian
SN12C renal = test system: SN12C renal
MDA-MB-435 = test system: MDA-MB-435
OVCAR-3 ovarian = test system: OVCAR-3 ovarian
U251 CNS = test system: U251 CNS
HS 578T breast = test system: HS 578T breast
UO-31 renal = test system: UO-31 renal
CAKI-1 renal = test system: CAKI-1 renal
ACHN renal = test system: ACHN renal
OVCAR-8 ovarian = test system: OVCAR-8 ovarian
MOLT-4 leukemia = test system: MOLT-4 leukemia
PC-3 prostate = test system: PC-3 prostate
COLO 205 colon = test system: COLO 205 colon
EKVX NSCLC = test system: EKVX NSCLC
SK-OV-3 ovarian = test system: SK-OV-3 ovarian
SNB-19 CNS = test system: SNB-19 CNS
SNB-75 CNS = test system: SNB-75 CNS
M14 melanoma = test system: M14 melanoma
BT-549 breast = test system: BT-549 breast
SF-539 CNS = test system: SF-539 CNS
NCI-H522 lung = test system: NCI-H522 lung
NCI-H460 lung = test system: NCI-H460 lung
DU-145 prostate = test system: DU-145 prostate
RXF 393 renal = test system: RXF 393 renal
IGROV1 ovarian = test system: IGROV1 ovarian
SF-268 CNS = test system: SF-268 CNS
HL-60(TB) leukemia = test system: HL-60(TB) leukemia
MDA-MB-231 breast = test system: MDA-MB-231 breast
RPMI-8226 leukemia = test system: RPMI-8226 leukemia
SR leukemia = test system: SR leukemia
CCRF-CEM leukemia = test system: CCRF-CEM leukemia
UACC-62 melanoma = test system: UACC-62 melanoma
NCI-H226 lung = test system: NCI-H226 lung
NCI-H23 lung = test system: NCI-H23 lung
UACC-257 melanoma = test system: UACC-257 melanoma
HOP-62 NSCLC = test system: HOP-62 NSCLC
MCF7 breast = test system: MCF7 breast
786-0 renal = test system: 786-0 renal
SK-MEL-28 melanoma = test system: SK-MEL-28 melanoma
HOP-92 NSCLC = test system: HOP-92 NSCLC
TK-10 renal = test system: TK-10 renal
SF-295 CNS = test system: SF-295 CNS
OVCAR-5 ovarian = test system: OVCAR-5 ovarian
HCT-116 colon = test system: HCT-116 colon
A498 renal = test system: A498 renal
SW-620 colon = test system: SW-620 colon
MDA-MB-468 breast = test system: MDA-MB-468 breast
MALME-3M melanoma = test system: MALME-3M melanoma
A549 NSCLC = test system: A549 NSCLC
NCI/ADR-RES ovarian = test system: NCI/ADR-RES ovarian
SK-MEL-5 melanoma = test system: SK-MEL-5 melanoma
HT29 colon = test system: HT29 colon
SK-MEL-2 melanoma = test system: SK-MEL-2 melanoma
LOX IMVI melanoma = test system: LOX IMVI melanoma
HCT-15 colon = test system: HCT-15 colon
T-47D breast = test system: T-47D breast
HCC-2998 colon = test system: HCC-2998 colon

O=C(N=Nc1c(O)[nH]c2ccc(Cl)cc12)c1ccc2nc(-c3ccc(Cl)cc3)[nH]c2c1
GI50 (KM12 colon): > 57.7 µM
TGI (KM12 colon): > 57.7 µM
GI50 (K-562 leukemia): 1620 nM
TGI (K-562 leukemia): > 57.7 µM
GI50 (OVCAR-4 ovarian): 1980 nM
TGI (OVCAR-4 ovarian): 18.8 µM
GI50 (SN12C renal): 2530 nM
TGI (SN12C renal): 33.2 µM
GI50 (MDA-MB-435): 2050 nM
TGI (MDA-MB-435): 13.3 µM
GI50 (OVCAR-3 ovarian): 5.2 µM
TGI (OVCAR-3 ovarian): > 57.7 µM
GI50 (U251 CNS): 1750 nM
TGI (U251 CNS): 6.46 µM
GI50 (HS 578T breast): 2670 nM
TGI (HS 578T breast): 41.3 µM
GI50 (UO-31 renal): > 57.7 µM
TGI (UO-31 renal): > 57.7 µM
GI50 (CAKI-1 renal): > 57.7 µM
TGI (CAKI-1 renal): > 57.7 µM
GI50 (ACHN renal): 23.5 µM
TGI (ACHN renal): > 57.7 µM
GI50 (OVCAR-8 ovarian): 4.42 µM
TGI (OVCAR-8 ovarian): > 57.7 µM
GI50 (MOLT-4 leukemia): 1420 nM
TGI (MOLT-4 leukemia): 16.5 µM
GI50 (PC-3 prostate): 7.5 µM
TGI (PC-3 prostate): > 57.7 µM
GI50 (COLO 205 colon): 2270 nM
TGI (COLO 205 colon): 10.5 µM
GI50 (EKVX NSCLC): 16.6 µM
TGI (EKVX NSCLC): > 57.7 µM
GI50 (SK-OV-3 ovarian): 15.5 µM
TGI (SK-OV-3 ovarian): > 57.7 µM
GI50 (SNB-19 CNS): 2050 nM
TGI (SNB-19 CNS): 10.7 µM
GI50 (SNB-75 CNS): 1740 nM
TGI (SNB-75 CNS): 14 µM
GI50 (M14 melanoma): 3.82 µM
TGI (M14 melanoma): > 57.7 µM
GI50 (BT-549 breast): 7.12 µM
TGI (BT-549 breast): 25.8 µM
GI50 (SF-539 CNS): 2110 nM
TGI (SF-539 CNS): 8.18 µM
GI50 (NCI-H522 lung): 3.73 µM
TGI (NCI-H522 lung): 27.2 µM
GI50 (NCI-H460 lung): 2380 nM
TGI (NCI-H460 lung): > 57.7 µM
GI50 (DU-145 prostate): 3.74 µM
TGI (DU-145 prostate): > 57.7 µM
GI50 (RXF 393 renal): 2990 nM
TGI (RXF 393 renal): 19.4 µM
GI50 (IGROV1 ovarian): 3.64 µM
TGI (IGROV1 ovarian): > 57.7 µM
GI50 (SF-268 CNS): 1780 nM
TGI (SF-268 CNS): 10.6 µM
GI50 (HL-60(TB) leukemia): 10.1 µM
TGI (HL-60(TB) leukemia): > 57.7 µM
GI50 (MDA-MB-231 breast): 1510 nM
TGI (MDA-MB-231 breast): 4.74 µM
GI50 (RPMI-8226 leukemia): > 57.7 µM
TGI (RPMI-8226 leukemia): > 57.7 µM
GI50 (SR leukemia): 3.29 µM
TGI (SR leukemia): > 57.7 µM
GI50 (CCRF-CEM leukemia): 969 nM
TGI (CCRF-CEM leukemia): 4.39 µM
GI50 (UACC-62 melanoma): 4.64 µM
TGI (UACC-62 melanoma): 26.6 µM
GI50 (NCI-H226 lung): 13.7 µM
TGI (NCI-H226 lung): > 57.7 µM
GI50 (NCI-H23 lung): 2220 nM
TGI (NCI-H23 lung): 9.84 µM
GI50 (UACC-257 melanoma): 40 µM
TGI (UACC-257 melanoma): > 57.7 µM
GI50 (HOP-62 NSCLC): 6.93 µM
TGI (HOP-62 NSCLC): 24 µM
GI50 (MCF7 breast): 1390 nM
TGI (MCF7 breast): > 57.7 µM
GI50 (786-0 renal): 3.08 µM
TGI (786-0 renal): 21.2 µM
GI50 (SK-MEL-28 melanoma): 6.25 µM
TGI (SK-MEL-28 melanoma): 49.7 µM
GI50 (HOP-92 NSCLC): 8.67 µM
TGI (HOP-92 NSCLC): 39 µM
GI50 (TK-10 renal): 40.9 µM
TGI (TK-10 renal): > 57.7 µM
GI50 (SF-295 CNS): 2970 nM
TGI (SF-295 CNS): 20.2 µM
GI50 (OVCAR-5 ovarian): 3.5 µM
TGI (OVCAR-5 ovarian): > 57.7 µM
GI50 (HCT-116 colon): 2350 nM
TGI (HCT-116 colon): > 57.7 µM
GI50 (A498 renal): 18.4 µM
TGI (A498 renal): 57 µM
GI50 (SW-620 colon): 1910 nM
TGI (SW-620 colon): > 57.7 µM
GI50 (MDA-MB-468 breast): 1400 nM
TGI (MDA-MB-468 breast): 4.88 µM
GI50 (MALME-3M melanoma): 2270 nM
TGI (MALME-3M melanoma): 10.9 µM
GI50 (A549 NSCLC): 29 µM
TGI (A549 NSCLC): > 57.7 µM
GI50 (NCI/ADR-RES ovarian): > 57.7 µM
TGI (NCI/ADR-RES ovarian): > 57.7 µM
GI50 (SK-MEL-5 melanoma): > 57.7 µM
TGI (SK-MEL-5 melanoma): > 57.7 µM
GI50 (HT29 colon): 2330 nM
TGI (HT29 colon): > 57.7 µM
GI50 (SK-MEL-2 melanoma): 41.5 µM
TGI (SK-MEL-2 melanoma): > 57.7 µM
GI50 (LOX IMVI melanoma): 1070 nM
TGI (LOX IMVI melanoma): 2320 nM
GI50 (HCT-15 colon): > 57.7 µM
TGI (HCT-15 colon): > 57.7 µM
GI50 (T-47D breast): 2000 nM
TGI (T-47D breast): 44.3 µM
GI50 (HCC-2998 colon): 3.4 µM
TGI (HCC-2998 colon): > 57.7 µM
